pIC50: −log10 of the molar value. The source made the active and inactive calls. The rule behind the calls is not given here.
Columns and labels:
Histone deacetylase 7 = biological target: T1, Histone deacetylase 7 (Homo sapiens, UniProt Q8WUI4); assay: Inhibition of HDAC7 derived from human HeLa cell extract using Ac-Leu-Gly-Lys (Ac)-AMC as substrate by fluorescence based assay; assay type: cell-free
T1 sequence (Q8WUI4 whole entry): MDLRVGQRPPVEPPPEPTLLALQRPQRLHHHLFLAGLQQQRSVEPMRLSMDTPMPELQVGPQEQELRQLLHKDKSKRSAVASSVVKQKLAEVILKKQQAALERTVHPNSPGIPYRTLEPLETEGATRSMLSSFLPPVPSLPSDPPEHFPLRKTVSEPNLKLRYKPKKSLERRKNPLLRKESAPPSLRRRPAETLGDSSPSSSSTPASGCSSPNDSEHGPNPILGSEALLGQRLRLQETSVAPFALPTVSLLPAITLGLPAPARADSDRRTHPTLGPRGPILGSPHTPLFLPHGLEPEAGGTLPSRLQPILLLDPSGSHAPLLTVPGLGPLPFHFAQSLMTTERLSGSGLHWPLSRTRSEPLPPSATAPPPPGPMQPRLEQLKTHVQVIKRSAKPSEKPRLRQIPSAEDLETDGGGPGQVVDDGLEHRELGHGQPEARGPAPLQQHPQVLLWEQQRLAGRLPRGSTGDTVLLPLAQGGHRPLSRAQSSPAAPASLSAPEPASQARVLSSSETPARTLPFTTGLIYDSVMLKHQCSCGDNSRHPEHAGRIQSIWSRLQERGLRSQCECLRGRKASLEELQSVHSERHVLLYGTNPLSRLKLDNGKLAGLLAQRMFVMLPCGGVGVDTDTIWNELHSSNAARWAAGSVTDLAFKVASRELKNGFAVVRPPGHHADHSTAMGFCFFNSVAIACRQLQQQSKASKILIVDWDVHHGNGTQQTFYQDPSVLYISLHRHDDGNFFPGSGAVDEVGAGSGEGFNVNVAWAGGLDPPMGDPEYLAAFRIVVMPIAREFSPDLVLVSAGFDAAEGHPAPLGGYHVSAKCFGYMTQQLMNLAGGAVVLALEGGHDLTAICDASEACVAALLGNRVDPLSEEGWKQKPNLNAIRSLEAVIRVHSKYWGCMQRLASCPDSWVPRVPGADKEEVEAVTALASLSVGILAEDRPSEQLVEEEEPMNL

Tubulin = assay: Inhibition of tubulin (unknown origin) polymerization measured for 60 mins by absorbance based assay; assay type: protein-complex assay, Homo sapiens
Tubulin (Homo sapiens) = Tubulin (Homo sapiens) (UniProt P68371+Q9H4B7+P0DPH7+P68366+Q13509+Q71U36+P04350+Q3ZCM7+P07437+P68363+Q9BQE3+Q6PEY2+Q13885+Q9BVA1+Q9BUF5); assay: Inhibition of tubulin polymerization in human K562 cells assessed as disruption of microtubule network at 2 to 8 nM by immunofluorescence based analysis; assay type: cell-based; conditions: dose 2-8 nM
K562 [1] = assay: Induction of cell cycle arrest at G1 phase in human K562 cells at 4 nM incubated for 48 hrs by PI staining based flow cytometry (reference value: 62.08 +/- 0.40 %); assay type: functional
K562 [2] = assay: Induction of apoptosis in human K562 cells assessed as late apoptotic cells at 2 nM incubated for 48 hrs by Annexin V/PI staining based flow cytometry (reference value: 3.37 +/- 0.21 %); assay type: functional
K562 [3] = assay: Induction of apoptosis in human K562 cells assessed as necrotic cells at 4 nM incubated for 48 hrs by Annexin V/PI staining based flow cytometry (reference value: 2.56 +/- 0.22 %); assay type: functional
K562 [4] = assay: Induction of apoptosis in human K562 cells assessed as late apoptotic cells at 8 nM incubated for 48 hrs by Annexin V/PI staining based flow cytometry (reference value: 3.37 +/- 0.21 %); assay type: functional
K562 [5] = assay: Induction of apoptosis in human K562 cells assessed as increase in Bax level incubated for 24 hrs by Western blot analysis; assay type: functional, cell-based; conditions: dose 2-8 nM
K562 [6] = assay: Induction of apoptosis in human K562 cells assessed as decrease in Bcl-xL level incubated for 24 hrs by Western blot analysis; assay type: functional, cell-based; conditions: dose 2-8 nM
K562 [7] = assay: Inhibition of mitochondrial membrane potential in human K562 cells assessed as red fluorescence intensity at 8 nM incubated for 48 hrs by JC-1 staining based flow cytometry (reference value: 93.36 +/- 0.21 %); assay type: functional
K562 [8] = assay: Inhibition of mitochondrial membrane potential in human K562 cells assessed as green fluorescence intensity at 8 nM incubated for 48 hrs by JC-1 staining based flow cytometry (reference value: 6.63 +/- 0.27 %); assay type: functional
HUVEC = assay: Antivascular activity against HUVEC cells assessed as decrease in cell migration at 8 nM incubated for 24 hrs by wound healing assay; assay type: functional, cell-based; conditions: Homo sapiens
[9] = Toxicity in ICR mouse allografted with mouse H22 cells assessed as toxic sign in heart at 10 to 20 mg/kg, iv qd for 17 days consecutively by H and E staining based analysis; assay type: organism-based; conditions: in vivo, dose 10-20 mg/kg, time 17 day
[10] = Toxicity in ICR mouse allografted with mouse H22 cells assessed as toxic sign in spleen at 10 to 20 mg/kg, iv qd for 17 days consecutively by H and E staining based analysis; assay type: organism-based; conditions: in vivo, dose 10-20 mg/kg, time 17 day
A549 = assay: cells; conditions: Homo sapiens, A549, 72 h
Description: Antiproliferative activity against human A549 cells incubated for 72 hrs by MTT assay

Structure (SMILES): C=C(c1ccc(OC)c(OC(F)C(=O)NO)c1)c1cc(C)nc2ccccc12 (stereo not given)
- pIC50 (Histone deacetylase 7): < 5.00
- pIC50 (Tubulin): 5.42
- inhibition (Tubulin (Homo sapiens)): Active
- Activity (K562 [1]): 49.35%
- Activity (K562 [2]): 3.94%
- Activity (K562 [3]): 0.17%
- Activity (K562 [4]): 25.59%
- Activity (K562 [5]): Dose-Dependent Effect
- Activity (K562 [6]): Dose-Dependent Effect
- Flu intensity (K562 [7]): 57.69%
- Flu intensity (K562 [8]): 42.31%
- Activity (HUVEC): Active
- Activity [9]: Non-Toxic
- Activity [10]: Non-Toxic
- pIC50 (A549): 7.77
